The supplement of paper PMC10307832

Legend:
Assay in all cases: relative viability (nuclei count vs DMSO), 5 days (fraction); higher = more cells survive
RO-3306 = compound: C1=CC2=C(C=CC(=C2)C=C3C(=O)NC(=NCC4=CC=CS4)S3)N=C1 [RO-3306]
Procedure, shortened: (§1)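 Viability was read as treated-well nuclei divided by vehicle-well nuclei, using the median across plates. Lung cancer cell lines in 1536-well plates were kept overnight at 37 °C, pinned with five √10-spaced library-drug doses, and after 5 days were Hoechst-stained, imaged at 4× and counted in MetaXpress. Plates passed only with control CV below 25% and at least one doubling.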

Foretinib = compound: COc1cc2c(Oc3ccc(NC(=O)C4(C(=O)Nc5ccc(F)cc5)CC4)cc3F)ccnc2cc1OCCCN1CCOCC1 [Foretinib] (anchor plate); details: 0.25 µM
Procedure, shortened: as §1

[1] = compound: O=S(=O)(c1ccccc1)N(CC(F)(F)F)c1ccc(C(O)(C(F)(F)F)C(F)(F)F)cc1
Procedure, shortened: as §1

RO-3306 + AZD7762 = compound: C1=CC2=C(C=CC(=C2)C=C3C(=O)NC(=NCC4=CC=CS4)S3)N=C1 [RO-3306] + NC(=O)Nc1cc(-c2cccc(F)c2)sc1C(=O)N[C@H]1CCCNC1 [AZD7762] (partner 0.2 µM)
Procedure, shortened: (§2)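 Dosing by pin tool came one day after lung cancer cell lines were seeded in 1536-well plates, using either one drug or a fixed anchor-drug dose plus five library-drug doses (not always all listed) in √10 steps. After 5 days, nuclei were counted on 4× images. Relative viability is treated-well nuclei count divided by vehicle-well nuclei count, and values are medians of duplicate plates.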

[2] = compound: O=S(=O)(c1ccccc1)N(CC(F)(F)F)c1ccc(C(O)(C(F)(F)F)C(F)(F)F)cc1 + Cc1cc(Nc2cc(N3CCN(C)CC3)nc(Sc3ccc(NC(=O)C4CC4)cc3)n2)n[nH]1 [Tozasertib] (partner 0.1 µM)
Procedure, shortened: as §2

[3] = compound: O=S(=O)(c1ccccc1)N(CC(F)(F)F)c1ccc(C(O)(C(F)(F)F)C(F)(F)F)cc1 + O=C(c1cc(Cc2n[nH]c(=O)c3ccccc23)ccc1F)N1CCN(C(=O)C2CC2)CC1 [Olaparib] (partner 8 µM)
Procedure, shortened: as §2

Cell Line	relative viability (RO-3306; 0.01 µM)	relative viability (RO-3306; 0.03162 µM)	relative viability (RO-3306; 0.1 µM)	relative viability (RO-3306; 0.3162 µM)	relative viability (RO-3306; 1 µM)	relative viability (Foretinib)	relative viability ([1]; 0.8 µM)	relative viability ([1]; 2.53 µM)	relative viability ([1]; 8 µM)	relative viability (RO-3306 + AZD7762; first compound 0.01 µM)	relative viability (RO-3306 + AZD7762; first compound 0.03162 µM)	relative viability (RO-3306 + AZD7762; first compound 0.1 µM)	relative viability (RO-3306 + AZD7762; first compound 0.3162 µM)	relative viability (RO-3306 + AZD7762; first compound 1 µM)	relative viability ([2]; first compound 0.8 µM)	relative viability ([2]; first compound 2.53 µM)	relative viability ([2]; first compound 8 µM)	relative viability ([3]; first compound 0.8 µM)	relative viability ([3]; first compound 2.53 µM)	relative viability ([3]; first compound 8 µM)
NCI-H2342	1.02	0.865	0.941	0.914	0.932	1.05	1.36	0.968	0.938	0.437	0.448	0.524	0.536	0.464	0.483	0.609	0.493	0.475	0.504	0.429
NCI-H1734	1.01	0.808	0.912	0.991	0.9	0.84	1.21	1.01	0.887	0.596	0.491	0.536	0.585	0.483	0.294	0.29	0.244	0.703	0.559	0.469
LC-2-ad	0.955	0.85	0.929	1.02	0.95	0.973	0.992	0.936	0.892	0.86	0.842	0.826	0.823	0.647	0.496	0.492	0.474	0.689	0.675	0.674
NCI-H1651	0.978	0.875	0.994	1.03	0.934	0.763	1.05	0.965	0.944	0.437	0.406	0.454	0.424	0.469	0.734	0.687	0.564	0.178	0.206	0.176
NCI-H838	1.03	0.908	0.992	1.07	0.95	1.03	1.12	0.962	1.02	1.03	0.908	0.975	0.972	0.931	0.278	0.268	0.25	0.937	0.736	0.86
201T	1.06	0.969	0.956	0.987	0.746	1.16	1.02	0.928	1.06	0.617	0.651	0.59	0.511	0.595	0.927	0.854	0.863	0.815	0.793	0.819
HOP-62	1.09	0.966	1.06	1.01	1.07	1.12	1.02	0.923	0.837	0.695	0.469	0.466	0.567	0.451	0.392	0.35	0.26	0.226	0.49	0.392
PC-3 [JPC-3]	1.03	0.929	1.03	1.01	1.06	1.01	1.06	1.06	1	0.688	0.673	0.769	0.687	0.681	0.819	0.838	0.767		1.09	1.1
ABC-1	0.94	0.769	0.901	0.887	0.817	1.07	0.758	0.843	1.03	0.906	0.812	0.823	0.963	0.813	0.172	0.19	0.202		0.763	0.638
NCI-H1915	1.05	0.944	0.98	0.992	0.536	1.1	1.06	0.98	1.08	0.749	0.679	0.727	0.698	0.685	0.458	0.454	0.468	0.266	0.263	0.269
PC-14	1.05	0.836	1.05	1.05	0.926	0.951	1.03	0.832	0.83	0.28	0.32	0.285	0.426	0.251	0.559	0.445	0.34	0.201	0.198	0.204
NCI-H2126	1.01	0.916	0.988	1.03	0.938	1.2	1.1	1.01	1.02	1.01	0.976	1.02	0.993	1.13	0.934	0.887	0.769	0.999	0.878	0.803
HARA	0.96	0.909	0.886	0.985	1.03	0.959	0.933	0.803	0.962	0.443		0.237	0.297	0.421	0.0946	0.0891	0.102	0.995		0.678
NCI-H23	0.958	0.715	0.837	1.03	1.02	0.969	1.09	1.07	1.15	0.249		0.21	0.303	0.227	0.315	0.307	0.331	0.31	0.23	0.302
NCI-H1793	1.09	0.694	0.865	0.993	1.12	0.741	0.758	0.747	0.785	0.643		0.484	0.277	0.532	0.31	0.249	0.269	0.791	0.574	0.692
LK-2	1.07	0.855	0.922	1.17	1.02	1.18	1.06	0.894	0.98	0.459	0.354	0.425	0.448	0.472	0.174	0.188	0.189	0.918	0.845	0.816
NCI-H358	1.13	0.779	0.902	0.947	0.766	0.694	0.815	0.796	0.826	0.486	0.493	0.49	0.52	0.578	0.107	0.0905	0.0846		0.563	0.517
EKVX	1	0.888	1	1.03	0.915	0.886	0.93	0.893	0.836	0.727	0.538	0.677	0.692	0.603	0.405	0.344	0.325	0.836	0.757	0.661
NCI-H1755	1.02	1	0.98	0.985	1.02	0.915	1.02	0.982	0.928	0.609	0.473	0.458	0.439	0.496	0.501	0.553	0.426	0.918	0.865	0.849
NCI-H460	1.05	0.956	0.983	1.02	1.04	1	1.06	0.949	0.943	0.797	0.675	0.682	0.737	0.785	0.392	0.417	0.243	0.452	0.432	0.407
NCI-H2405	1	0.949	0.995	1.02	0.906	1.01	1.03	0.987	0.945	0.828	0.608	0.717	0.718	0.578	0.889	0.749	0.711	0.846	0.819	0.777
LU99A	0.983	0.831	0.876	0.912	0.817	0.827	1.09	0.885	0.875	0.394	0.325	0.483	0.319	0.338	0.235	0.238	0.253	0.253	0.248	0.392
NCI-H2087	1.11	0.918	1.1	1.04	0.991	1.06	1.11	0.993	0.909	1.42	1.03	1.35	1.42	1.34	0.255	0.258	0.188	0.643	0.609	0.637
HCC-827	1.02	0.955	1.03	1.03	1.06	0.976	1.1	1.02	0.975	0.234	0.18	0.216	0.197	0.196	0.419	0.414	0.406	0.612	0.627	0.63
SW 900	0.917	0.697	0.705	0.943	0.785	0.974	0.934	0.729	0.994	0.652	0.511	0.653	0.587	0.626	0.528	0.426	0.404	0.838	0.901	0.706
NCI-H1944	1.08	0.911	0.917	1.01	0.929	0.895	1.1	0.955	1.07	0.606	0.571	0.508	0.45	0.46	0.263	0.263	0.234	0.407	0.39	0.396
NCI-H1395	0.895	0.869	0.729	0.887	0.707	1	0.867	0.894	0.914	0.44	0.42	0.374	0.374	0.427	0.737	0.671	0.82	0.409	0.458	0.467
